For data set [1], the target named is T1, CDK9/Cyclin T1 (Homo sapiens, UniProt P50750).
T1 construct: purchased Carna Biosciences 04-110
The experiment in a line: CDK9 enzyme activity, LANCE ULight TR-FRET kinase assay. The class given is biochemical. The settings on record: 1000 μM ATP, 4 nM CDK9/Cyclin T1, 30 minutes. The method, then:
CDK9 enzyme activities were measured using LANCE ULight TR-FRET kinase assay reagents (PerkinElmer, Waltham, Mass.). Compounds were directly added in 100% DMSO to white low volume assay plates (Perkin Elmer Proxiplate 6008289) using a Labcyte Echo acoustic dispenser. Assay reagents in serine/threonine kinase assay buffer containing 20 mM HEPES, 10 mM MgCl2, 100 mM Na3VO4, and 0.0075% Triton X-100. were added for final reaction mixture concentrations of 1000 μM ATP, 100 nM U-light MBP peptide (Perkin Elmer TRF0109M) and reaction initiated with 4 nM CDK9/Cyclin T1 (Carna Biosciences 04-110). The kinase reaction was carried out for 30 minutes before addition of stopping buffer to a final of 20 mM EDTA and 0.5 nM of LANCE Ultra Europium anti-phospho-MBP antibody (PerkinElmer TRF0201M) in LANCE detection buffer (PerkinElmer CR97-100). The reaction was equilibrated for 1 hour and the signal read in the Perkin Elmer Envision in TR-FRET mode (excitation at 320 nm and emission at 615/665 nm).
(In general: Time-resolved FRET reads energy transfer from a long-lived donor to a nearby acceptor.)

The subject of data set [2] is H929 cells. The experiment in a line: Cell viability assay (Cell TiterGlo), H929 cells. The class given is cell-based, human. The settings on record: Homo sapiens, NCI-H929, 24 hours. The method, then:
(§1) Cell viability assays were performed using A431 or H929 cells. A431 cells were seeded in 96-well plates at 10,000 cells/well, and after overnight incubation, treated with compounds at 2-times the final concentration to result in a dose response of 3-fold dilutions from 10 μM to 0.0005 μM (50 μL/well, 0.1% final DMSO concentration). H929 cells were seeded in 96-well plates at 10,000 cells/well and treated immediately with compounds as described above. After 24 hours at 37° C., cell viability was measured using Cell TiterGlo reagent (Promega) with a luminescence reader. Alternately, cell viability assays were performed in 384-well format. A431 cells were seeded in 384-well plates at 2500 cells/well and, after overnight incubation, treated with compounds in a dose response of 3-fold dilutions from 10 μM to 0.0005 μM ([…], 0.1% final DMSO concentration). For the H929 viability assay, […] of the compounds was dispensed into 384-well plates in a dose response as described above and cells were immediately seeded in 384-well plates at 2500 cells/well. After 24 hours at […], cell viability was measured using Cell TiterGlo reagent (Promega) with a luminescence reader.

For data set [3], the system named is A431 cells. As to the kind of experiment: Cell viability assay (Cell TiterGlo), A431 cells. The class given is cell-based. The settings on record: Homo sapiens, A-431, 24 hours. Here is the method: as §1
The subject of data set [4] is H929 xenograft tumors. As to the kind of experiment: Xenograft tumor growth inhibition assay, H929 human multiple myeloma xenograft. It counts as in vivo, mice. The settings on record: IP, TW x 3; for % TGD (tumor growth delay): (T − C)/C × 100, median time to endpoint; for % TGI: female nude or SCID-beige mice, end of treatment period; for % removed from study: removed due to morbidity or weight loss in excess of 20%. The method, then: Xenograft Tumor Growth Inhibition Assay
The effect of Examples 1, 4, and 5 to inhibit the growth of H929 xenograft tumors implanted in mice was evaluated. NCI-H929 cells obtained from culture were suspended in cell culture medium (MEM, no calcium, no glutamine, Life Technologies Corporation) and diluted 1:1 with a solution of Matrigel™ (BD Biosciences, Franklin Lakes, N.J.). Tumor cells 5 million per site were inoculated subcutaneously into the right hind flank of female nude or SCID-beige mice (Charles River Labs).
Randomization into treatment and vehicle control groups (9-10/group) occurred when the mean tumor volume reached approximately 200 mm^3 Compounds were formulated in 2% DMSO, 5% Tween80, 20% PEG400, 73% HPMC. Administration of compound or vehicle was initiated on the day following randomization and continued for the indicated time. Tumors were measured twice a week throughout the treatment period using a pair of calipers and tumor volumes were calculated according to the formula V=L×W^2/2 (V: volume, mm^3; L: length, mm. W: width, […]). Tumor growth inhibition was calculated based on the mean tumor volume measured at the end of the treatment period according to the formula % TGI=100−mean tumor volume of treatment group/mean tumor volume of control group×100.
A general note: A xenograft is tissue or cells of one species grown in another, often human tumour cells in immunodeficient mice.

The structures appear in SMILES notation. pEC50, pIC50: −log10 of the molar value. Marks after values point to notes of the source that are not given here.

In general, pIC50 refers to the negative decadic logarithm of the IC50, by convention in mol/L. Low readings indicate a large IC50, high ones a small IC50. For orientation: pEC50 means −log10 of the EC50, conventionally taken in molar units. A low value points to a large EC50.

T1 sequence (P50750 whole entry): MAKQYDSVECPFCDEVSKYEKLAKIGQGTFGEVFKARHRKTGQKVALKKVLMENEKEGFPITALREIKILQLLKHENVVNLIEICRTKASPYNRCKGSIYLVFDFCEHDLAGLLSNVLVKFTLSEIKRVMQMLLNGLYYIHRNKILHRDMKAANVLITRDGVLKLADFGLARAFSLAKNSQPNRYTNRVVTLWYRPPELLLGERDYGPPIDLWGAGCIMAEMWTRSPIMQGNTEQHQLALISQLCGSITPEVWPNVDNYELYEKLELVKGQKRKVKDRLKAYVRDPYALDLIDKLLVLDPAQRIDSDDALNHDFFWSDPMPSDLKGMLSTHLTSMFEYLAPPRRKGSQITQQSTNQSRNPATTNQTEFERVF
T1 sequence (O60563 whole entry partner): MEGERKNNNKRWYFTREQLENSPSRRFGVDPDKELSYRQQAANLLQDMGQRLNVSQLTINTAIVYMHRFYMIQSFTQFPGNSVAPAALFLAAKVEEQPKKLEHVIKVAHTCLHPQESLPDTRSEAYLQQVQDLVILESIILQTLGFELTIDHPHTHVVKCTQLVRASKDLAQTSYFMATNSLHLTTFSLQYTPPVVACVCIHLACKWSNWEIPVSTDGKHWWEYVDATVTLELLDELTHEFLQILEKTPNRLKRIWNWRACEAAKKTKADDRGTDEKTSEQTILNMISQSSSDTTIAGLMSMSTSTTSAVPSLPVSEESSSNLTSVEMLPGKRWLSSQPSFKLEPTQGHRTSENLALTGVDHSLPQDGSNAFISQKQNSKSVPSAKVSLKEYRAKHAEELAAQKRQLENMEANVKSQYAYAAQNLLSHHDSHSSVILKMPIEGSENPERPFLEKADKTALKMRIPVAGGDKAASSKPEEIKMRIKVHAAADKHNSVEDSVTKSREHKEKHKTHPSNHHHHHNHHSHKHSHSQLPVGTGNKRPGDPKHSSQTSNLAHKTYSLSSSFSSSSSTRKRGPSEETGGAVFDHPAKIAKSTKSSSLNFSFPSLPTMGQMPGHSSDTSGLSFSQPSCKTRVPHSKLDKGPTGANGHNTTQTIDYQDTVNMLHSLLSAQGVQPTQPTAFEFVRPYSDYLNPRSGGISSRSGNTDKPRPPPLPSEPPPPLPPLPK

`CS(=O)(=O)N1CC=C(c2cc3c(-c4ccc5ncn(Cc6cccc(F)c6)c5c4)ccnc3[nH]2)CC1` [Example 15, 1-(3-fluorobenzyl)-6-{2-[1-(methylsulfonyl)-1,2,3,6-tetrahydropyridin-4-yl]-1H-pyrrolo[2,3-b]pyridin-4-yl}-1H-benzimidazole]: the pIC50 in data set [1] was 7.37. Besides, the values for the negative-log EC50 (pEC50) in data set [2] and in data set [3] were 8.15 and 8.22, respectively.
On to `CS(=O)(=O)N1CCC(c2cc3c(-c4ccc5c(C#N)cn(Cc6cccc(F)c6)c5c4)ccnc3[nH]2)CC1` [Example 11, 1-(3-fluorobenzyl)-6-{2-[1-(methylsulfonyl)piperidin-4-yl]-1H-pyrrolo[2,3-b]pyridin-4-yl}-1H-indole-3-carbonitrile], for which, in data set [1], the negative logarithm of the IC50 (pIC50) was 6.96. Further, the pEC50 in data set [2] was 6.75.
Regarding `CNC(=O)N1CCC(c2cc3c(-c4ccc5ncn(Cc6cncc(F)c6)c5c4)ccnc3[nH]2)CC1` [Example 16, 4-(4-{1-[(5-fluoropyridin-3-yl)methyl]-1H-benzimidazol-6-yl}-1H-pyrrolo[2,3-b]pyridin-2-yl)-N-methylpiperidine-1-carboxamide], in data set [1], the negative logarithm of the IC50 (pIC50) is 7.03. In data set [2], this molecule showed a pEC50 of 6.74.
On to `CNC(=O)N1CC=C(c2cc3c(-c4ccc5ccn(Cc6cncc(F)c6)c5n4)ccnc3[nH]2)CC1` [Example 54, 4-{1′-[(5-fluoropyridin-3-yl)methyl]-1H,1′H-4,6′-bipyrrolo[2,3-b]pyridin-2-yl}-N-methyl-3,6-dihydropyridine-1(2 H)-carboxamide], for which, in data set [1], the pIC50 is 7.57. In data set [2], this molecule had a pEC50 of 6.68.
As to `Clc1cc2ncn(CC3CCOCC3)c2cc1-c1ccnc2[nH]c(C3CCNCC3)cc12` [Example 27, 5-chloro-6-[2-(piperidin-4-yl)-1H-pyrrolo[2,3-b]pyridin-4-yl]-1-(tetrahydro-2H-pyran-4-ylmethyl)-1H-benzimidazole], the negative-log IC50 (pIC50) in data set [1] is 7.28. In data set [2], this molecule gave a pEC50 of 5.15.
Consider `N#Cc1cn(Cc2ccccc2)c2cc(-c3ncnc4[nH]c(C5=CCNCC5)cc34)ccc12` [Example 22, 1-benzyl-6-[6-(1,2,3,6-tetrahydropyridin-4-yl)-7H-pyrrolo[2,3-d]pyrimidin-4-yl]-1H-indole-3-carbonitrile], for which the pIC50 in data set [1] was 7.80. Further, the pEC50 in data set [2] was 7.00.
In the case of `OCC(O)CN1CCC(c2cc3c(-c4ccc5ncn(Cc6cncc(F)c6)c5c4)ccnc3[nH]2)CC1` (stereo not shown) [Example 17, 3-[4-(4-{1-[(5-fluoropyridin-3-yl)methyl]-1H-benzimidazol-6-yl}-1H-pyrrolo[2,3-b]pyridin-2-yl)piperidin-1-yl]propane-1,2-diol], the pIC50 in data set [1] was 7.18. Moreover, the negative-log EC50 (pEC50) in data set [2] was 6.92.
Molecule `CS(=O)(=O)N1CC=C(c2cc3c(-c4ccc5ccn(Cc6cncc(F)c6)c5n4)ccnc3[nH]2)CC1` [Example 55, 1′-[(5-fluoropyridin-3-yl)methyl]-2-[1-(methylsulfonyl)-1,2,3,6-tetrahydropyridin-4-yl]-1H,1′H-4,6′-bipyrrolo[2,3-b]pyridine] had a pIC50 in data set [1] of 7.19. The same molecule showed a pEC50 in data set [2] of 6.43.
In data set [1], `Fc1cc2ncn(CC3CCOCC3)c2cc1-c1ccnc2[nH]c(C3CCNCC3)cc12` [Example 18, 5-fluoro-6-[2-(piperidin-4-yl)-1H-pyrrolo[2,3-b]pyridin-4-yl]-1-(tetrahydro-2H-pyran-4-ylmethyl)-1H-benzimidazole] gave a pIC50 of 6.92. In addition, in data set [2], the pEC50 is 6.07.
In turn, `CNC(=O)N1CCC(c2cc3c(-c4ccc5ccn(Cc6cncc(F)c6)c5n4)ccnc3[nH]2)CC1` [Example 52, 4-{1′-[(5-fluoropyridin-3-yl)methyl]-1H,1′H-4,6′-bipyrrolo[2,3-b]pyridin-2-yl}-N-methylpiperidine-1-carboxamide] showed a pIC50 in data set [1] of 7.96. The same molecule showed a pEC50 in data set [2] of 5.96.
For `CS(=O)(=O)N1CCC(c2cc3c(-c4cnc5ccn(Cc6cccc(F)c6)c5c4)ccnc3[nH]2)CC1` [Example 34, 1-(3-fluorobenzyl)-6-{2-[1-(methylsulfonyl)piperidin-4-yl]-1H-pyrrolo[2,3-b]pyridin-4-yl}-1H-pyrrolo[3,2-b]pyridine], in data set [1], the pIC50 is 7.77. The pEC50 in data set [2] is 6.89.
For the molecule `Fc1cncc(Cn2ccc3ccc(-c4ccnc5[nH]c(C6CCNCC6)cc45)nc32)c1` [Example 49, 1′-[(5-fluoropyridin-3-yl)methyl]-2-(piperidin-4-yl)-1H,1′H-4,6′-bipyrrolo[2,3-b]pyridine], the pIC50 in data set [1] was 7.62. This molecule also gave a negative-log EC50 (pEC50) in data set [2] of 6.60.
In turn, `CNC(=O)N1CCC(c2cc3c(-c4cnc5ccn(Cc6cncc(F)c6)c5c4)ccnc3[nH]2)CC1` [Example 47, 4-(4-{1-[(5-fluoropyridin-3-yl)methyl]-1H-pyrrolo[3,2-b]pyridin-6-yl}-1H-pyrrolo[2,3-b]pyridin-2-yl)-N-methylpiperidine-1-carboxamide] showed a pIC50 in data set [1] of 7.64. Moreover, the negative-log EC50 (pEC50) in data set [2] was 6.22.
Molecule `c1cc(-c2ccc3ncn(CC4CCOCC4)c3n2)c2cc(C3CCNCC3)[nH]c2n1` [Example 7, 5-[2-(piperidin-4-yl)-1H-pyrrolo[2,3-b]pyridin-4-yl]-3-(tetrahydro-2H-pyran-4-ylmethyl)-3H-imidazo[4,5-b]pyridine] showed a pIC50 in data set [1] of 7.16. This molecule also showed a pEC50 in data set [2] of 6.30.
The like results for `O=C(CO)N1CC=C(c2cc3c(-c4ccc5nnn(CC6CCOCC6)c5c4)ccnc3[nH]2)CC1` [Example 38, 2-hydroxy-1-[4-{4-[1-(tetrahydro-2H-pyran-4-ylmethyl)-1H-benzotriazol-6-yl}-1H-pyrrolo[2,3-b]pyridin-2-yl]-3,6-dihydropyridin-1(2H)-yl]ethanone] were, in that order, 7.21 and 6.36.
As for `Fc1cccc(CCn2nnc3ccc(-c4ccnc5[nH]c(C6CCNCC6)c(Cl)c45)cc32)c1` [Example 33, 6-[3-chloro-2-(piperidin-4-yl)-1H-pyrrolo[2,3-b]pyridin-4-yl]-1-[2-(3-fluorophenyl)ethyl]-1H-benzotriazole], in data set [1], the pIC50 was 7.74. In data set [2], this molecule showed a pEC50 of 5.96.
`c1cc(-c2ccc3ncn(CC4CCOCC4)c3c2)c2cc(C3CCNCC3)[nH]c2n1` [Example 5, 6-{2-(piperidin-4-yl)-1H-pyrrolo[2,3-b]pyridin-4-yl}-1-(tetrahydro-2H-pyran-4-ylmethyl)-1H-benzimidazole] showed a pIC50 in data set [1] of 7.40. In data set [2], this molecule showed a pEC50 of 6.74. Moreover, in data set [4] (7.50 mg/kg), the “% TGD (tumor growth delay)” value was 20%, the “% TGI” value came to 39% and the “% removed from study” value is on record as 22%. Besides, in data set [4] (15 mg/kg), the “% TGD (tumor growth delay)” value is on record as 31** %, the “% TGI” value is recorded as 58** % and the “% removed from study” value amounted to 11%.
For `Fc1cncc(Cn2ccc3ncc(-c4ccnc5[nH]c(C6CCNCC6)cc45)cc32)c1` [Example 37, 1-[(5-fluoropyridin-3-yl)methyl]-6-[2-(piperidin-4-yl)-1H-pyrrolo[2,3-b]pyridin-4-yl]-1H-pyrrolo[3,2-b]pyridine], the pIC50 in data set [1] was 7.59. The molecule also had a pEC50 in data set [2] of 6.77.

(Values after patent publication US8969375B2, “CDK9 kinase inhibitors” (AbbVie Inc., priority 2013, dated 2015).)
